One assay deals with U2OS cells. Nature of the assay: Cellular viability assay (Cell Titer-Glo), U2OS. It is filed as cell-based. The following applies: Homo sapiens; U2OS (PARG-inhibition insensitive), 96 hours of incubation; read-out: EC50 in μM determined in U2OS cells as described under Cellular viability assay. How it is done:
(§1) NCIH-460 as a PARG-inhibition sensitive cell line and U2OS as PARG-inhibition insensitive cell line were plated at 1000 cells/well and 2000 cells/well, respectively, in 96-well white plates with clear flat bottom. After 24 hours, the compounds were added with the Tecan digital dispenser (D300e), in duplicates. The outer wells of the plate were excluded. After 96 hours of incubation, 150 μl of the growth medium were removed and 50 μl of Cell Titer-Glo (Promega) were added per well. Following an incubation of 10 minutes, luminescence was read using a plate reader (Tecan). Averaged values of the samples were normalized to DMSO treated control samples. Curves were fit as % of the control vs. log of the compound concentration using a 4 parameter log-logistic function: […]

In a further assay the target is T1, hPARG (Homo sapiens, UniProt Q86W56, A967T/C963S/D927K/H446G/I916T/L447S/L473S/M841I/N479S/R811K/S802A/S858P/T924D).
T1 construct: human PARG (448-976 [H446G, L447S, L473S, N479S); 6His-TwinStrep (protease-cleavable) (N, cleaved yes); host or cells: E. coli BL21 (DE3)
Nature of the assay: PARG enzymatic IC50 assay (absorbance, ADP-ribose-pNP substrate). In kind it is biochemical. The following applies: 2 hours incubation of enzyme with compound; 30 nM hPARG, 800 μM ADP-pNP; read-out: IC50 in μM determined in PARG enzymatic assay (PARG protein and 2 hours incubation). As for the experimental part:
A codon optimized gene encoding human PARG (448-976 [H446G, L447S, L473S, N479S, S802A, R811K, M841I, S858P, 1916T, T924D, D927K, C963S, A967T]) was synthesized by Genscript, and cloned into pET15b (Ncol/BamHI) with an N-terminal, Thrombin protease cleavable 6His-TwinStrep tag. Expression of the protein in E. coli BL21 (DE3) was induced by addition of 0.2 mM IPTG to a shake flask culture grown to OD600=0.8 at 37° C. Growth was allowed to continue at 30° C. for a further 20 hours before harvesting by centrifugation and storage of the cell pellet at −80° C.
Protein was purified by IMAC and SEC: frozen cell pellets (typically 40 g wet weight) were resuspended by homogenization in 5 volumes buffer A (25 mM Tris/HCl pH 8.0, 200 mM NaCl, 2 mM DTT), supplemented with 1 mg of DNase I from bovine pancreas (Sigma-Aldrich) and protease inhibitors (Roche Complete™ EDTA-free protease inhibitor tablet), and lysed by passage through a Constant Systems BasicZ homogenizer. The lysate was clarified by centrifugation for 60 minutes at 25,000 g, 4° C., and the lysate supernatant was loaded onto 5 ml StrepTrap HP (Cytiva) pre-equilibrated with buffer A. The column was washed with buffer A (˜10 CV), then buffer B containing 1M KCl (˜5 CV), and then the protein was eluted with buffer A containing 2.5 mM d-Desthiobiotin. Pooled fractions containing 6HisTwinStrep-TEV-hPARG were incubated with TEV protease overnight at 4° C. hPARG was separated from uncleaved material and Thrombin protease through gel filtration with Superdex75 sizing column (GE Healthcare) pre-equilibrated with SEC buffer (15 mM Tris/HCl pH 8.5, 100 mM NaCl, 2 mM DTT). Pooled fractions containing pure hPARG were concentrated using a 10 k MWCO spin concentrator (VivaSpin) to 10 mg/mL, and then either used immediately for crystallisation or snap-frozen in liquid nitrogen for storage at −80° C.
PARG Enzymatic IC50 Assay
PARG enzyme as incubated with compound or vehicle (DMSO) for 15 minutes or 2 hours in a 384 well plate. After adding the PARG substrate ADP-ribose-pNP, the plate was read for absorbance intensity at 405 nm. The vehicle (DMSO) with high absorbance intensity represents no inhibition of enzymatic reaction while the low control (no enzyme) with low absorbance intensity represents full inhibition of enzymatic reaction.
• hPARG: Peak Protein, 30 nM • Substrate: ADP-pNP, 800 μM, Jena Bioscience catalog #NU-955 • Reaction time: 60 minutes • Assay buffer: 50 mM Tris-HCl pH 8.0, 100 mM NaCl, 2 mM DTT • Temperature: 30° C. • Total volume: 30 μL
• 0% inhibition control: DMSO • 100% inhibition control: No enzyme
The protocol that was used for enzyme reaction and detection is as follows: • 1. Transfer 100 nL of the final concentration of test compounds or vehicle (DMSO) to the appropriate wells of a microtiter plate. • 2. Centrifuge the plate at 1000 rpm for 1 minute. • 3. Transfer 14.6 μL of 2× final concentration of enzyme in assay buffer or assay buffer alone to the appropriate wells. • 4. Centrifuge the plate at 1000 rpm for 1 minute. • 5. Incubate the plate at room temperature for 15 minutes or 2 hours. • 6. Transfer 15.4 μL of 2× substrate in assay buffer to all the test wells. • 7. Centrifuge the plate at 1000 rpm for 1 minute. • 8. Read the plate on a plate reader (e.g., Spark Tecan).

For the next assay, the system named is NCIH-460 cells. Nature of the assay: Cellular viability assay (Cell Titer-Glo), NCIH-460. The following applies: Homo sapiens, NCI-H460; NCIH-460 (PARG-inhibition sensitive), 96 hours of incubation; read-out: EC50 in μM determined in NCIH-460 cells as described under Cellular viability assay. It is filed as cell-based. How it is done:
as §1

Another assay has as its system PARG in U2OS cells. Nature of the assay: Cellular PAR chain assay (flow cytometry, PAR chain positive cells). In kind it is cell-based. The following applies: 1 hour compound pretreatment. How it is done: The ability of compounds to inhibit PARG in response to DNA damage, was assessed with U2OS cells pretreated with the compounds for 1 hour, following a 1-hour treatment with or without the DNA alkylating agent temozolomide (TMZ). […] The cells were incubated for 2 hours at room temperature with a mouse monoclonal antibody against poly (ADP) ribose (PAR) polymer. The cells were washed and incubated with an anti-mouse Alexa-488 conjugated secondary antibody for 1 hour at room temperature. Propidium iodide staining was used to determine DNA content in the cells (staining at 4° C. overnight). The fluorescence intensity of the cells was assessed by flow cytometry (Cytoflex from Beckmann) and the percentage of PAR chain positive cells (gated in relation to TMZ+DMSO treated control) was determined. PAR chain positive cells % were fit against the concentration of the compound using a 4 parameter log-logistic function, generating PAR chain EC50 values: […]

[1] abbreviates: without TMZ, read-out: EC50 in μM determined in cellular assay as described under Cellular PAR chain assay (conditions without treatment of TMZ).
[2] abbreviates: Homo sapiens, then 1-hour treatment with TMZ, read-out: EC50 in μM determined in cellular assay as described under Cellular PAR chain assay (conditions with treatment of TMZ).

The results in this text go back to patent US20250002491A1, “N,N-DIMETHYL-4-(7-(N-(1-METHYLCYCLOPROPYL)SULFAMOYL)-IMIDAZO[1,5-A]PYRIDIN-5-YL)PIPERAZINE-1-CARBOXAMIDE DERIVATIVES AND THE CORRESPONDING PYRAZOLO[1,5-A]PYRIDINE DERIVATIVES AS PARG INHIBITORS FOR THE TREATMENT OF CANCER” (FORX THERAPEUTICS AG, priority 2021, published 2025).

Structures are written as SMILES. Like-named read-outs stand apart in the source and are kept apart here.

T1 sequence (Q86W56 446-976 H446G/L447S/L473S/N479S/S802A/R811K/M841I/S858P/I916T/T924D/D927K/C963S/A967T): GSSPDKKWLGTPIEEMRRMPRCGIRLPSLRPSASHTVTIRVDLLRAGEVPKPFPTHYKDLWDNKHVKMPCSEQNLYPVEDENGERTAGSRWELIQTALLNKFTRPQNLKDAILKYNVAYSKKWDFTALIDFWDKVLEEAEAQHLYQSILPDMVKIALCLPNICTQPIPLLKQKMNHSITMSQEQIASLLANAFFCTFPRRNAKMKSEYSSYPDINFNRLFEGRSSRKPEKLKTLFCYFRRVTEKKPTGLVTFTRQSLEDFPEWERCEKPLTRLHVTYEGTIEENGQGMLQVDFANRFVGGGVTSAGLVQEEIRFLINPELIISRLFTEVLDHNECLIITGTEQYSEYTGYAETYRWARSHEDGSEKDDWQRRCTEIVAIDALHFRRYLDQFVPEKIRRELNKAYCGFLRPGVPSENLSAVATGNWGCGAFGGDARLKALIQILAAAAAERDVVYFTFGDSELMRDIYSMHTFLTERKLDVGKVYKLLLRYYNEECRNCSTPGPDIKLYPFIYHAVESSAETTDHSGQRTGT

As to `Cc1ccc(-c2ncn3c(N4CCN(C(=O)N(C)C)CC4)cc(S(=O)(=O)NC4(C)CC4)cc23)cn1` [Example 1, N,N-dimethyl-4-(7-(N-(1-methylcyclopropyl)sulfamoyl)-1-(6-methylpyridin-3-yl)imidazo[1,5-a]pyridin-5-yl)piperazine-1-carboxamide], the EC50 in the assay with U2OS cells was greater than 16.8 µM; with NCIH-460 cells, 13.4 µM; in the assay on PARG in U2OS cells (setting [1]), greater than 10 µM; in the assay with PARG in U2OS cells (setting [2]), 1.1 µM. Moreover, the IC50 at hPARG is 0.064 µM.

Take `CN(C)C(=O)N1CCN(c2cc(S(=O)(=O)NC3(C)CC3)cc3c(-c4ccc(C(F)F)nc4)ncn23)CC1` [Example 3, 4-(1-(6-(difluoromethyl)pyridin-3-yl)-7-(N-(1-methylcyclopropyl)sulfamoyl)imidazo[1,5-a]pyridin-5-yl)-N,N-dimethylpiperazine-1-carboxamide]: the EC50 in the assay on U2OS cells is greater than 20 µM; in the assay with NCIH-460 cells, 4.47 µM; in the assay on PARG in U2OS cells (setting [1]), greater than 10 µM; in the assay with PARG in U2OS cells (setting [2]), 0.218 µM. Besides, the IC50 on hPARG was 0.066 µM.

With `Cc1ccc(-c2cnn3c(N4CCN(C(=O)N(C)C)CC4)cc(S(=O)(=O)NC4(C)CC4)cc23)cn1` [Example 5, N,N-dimethyl-4-(5-(N-(1-methylcyclopropyl)sulfamoyl)-3-(6-methylpyridin-3-yl)pyrazolo[1,5-a]pyridin-7-yl)piperazine-1-carboxamide], the EC50 was greater than 20 µM in the assay with U2OS cells, 3.22 µM in the assay with NCIH-460 cells, greater than 10 µM with PARG in U2OS cells (setting [1]) and 0.223 µM in the assay with PARG in U2OS cells (setting [2]). Also, on hPARG, the IC50 came out at 0.054 µM.

Take `CN(C)C(=O)N1CCN(c2cc(S(=O)(=O)NC3(C)CC3)cc3c(-c4ccc(C(F)F)nc4)cnn23)CC1` [Example 7, 4-(3-(6-(difluoromethyl)pyridin-3-yl)-5-(N-(1-methylcyclopropyl)sulfamoyl)pyrazolo[1,5-a]pyridin-7-yl)-N,N-dimethylpiperazine-1-carboxamide]: the EC50 in the assay on U2OS cells was greater than 20 µM; with NCIH-460 cells, 3.94 µM; with PARG in U2OS cells (setting [1]) it was greater than 10 µM; in the assay with PARG in U2OS cells (setting [2]) it was 0.328 µM. Moreover, the IC50 at hPARG amounted to 0.028 µM.

On to `COC(=O)c1cnn2c(N3CCN(C(=O)N(C)C)CC3)cc(S(=O)(=O)NC3(C)CC3)cc12` [Example 8, Methyl 7-(4-(dimethylcarbamoyl)piperazin-1-yl)-5-(N-(1-methylcyclopropyl)sulfamoyl)pyrazolo[1,5-a]pyridine-3-carboxylate], for which the EC50 was greater than 20 µM in the assay with U2OS cells and 7.22 µM in the assay on NCIH-460 cells. Besides, the IC50 on hPARG came out at 0.043 µM.

Consider `CN(C)C(=O)N1CCN(c2cc(S(=O)(=O)NC3(C)CC3)cc3c(-c4nnc(C(F)F)s4)cnn23)CC1` [Example 10, 4-(3-(5-(difluoromethyl)-1,3,4-thiadiazol-2-yl)-5-(N-(1-methylcyclopropyl)sulfamoyl)pyrazolo[1,5-a]pyridin-7-yl)-N,N-dimethylpiperazine-1-carboxamide], for which the EC50 in the assay on U2OS cells is greater than 20 µM; in the assay on NCIH-460 cells, 1.3 µM; in the assay on PARG in U2OS cells (setting [1]) it was greater than 10 µM; in the assay on PARG in U2OS cells (setting [2]), 0.266 µM. Besides, the IC50 on hPARG turned out to be 0.042 µM.

`CN(C)C(=O)N1CCN(c2cc(S(=O)(=O)NC3(C)CC3)cc3c(-c4nnc(C(F)F)o4)cnn23)CC1` [Example 11, 4-(3-(5-(difluoromethyl)-1,3,4-oxadiazol-2-yl)-5-(N-(1-methylcyclopropyl)sulfamoyl)pyrazolo[1,5-a]pyridin-7-yl)-N,N-dimethylpiperazine-1-carboxamide]: the EC50 in the assay on U2OS cells was greater than 20 µM; in the assay with NCIH-460 cells it was 4.58 µM; with PARG in U2OS cells (setting [1]), greater than 10 µM; in the assay on PARG in U2OS cells (setting [2]) it was 0.739 µM. Further, the IC50 on hPARG was 0.098 µM.

As for `Cc1nnc(-c2cnn3c(N4CCN(C(=O)N(C)C)CC4)cc(S(=O)(=O)NC4(C)CC4)cc23)s1` [Example 12, N,N-dimethyl-4-(3-(5-methyl-1,3,4-thiadiazol-2-yl)-5-(N-(1-methylcyclopropyl)sulfamoyl)pyrazolo[1,5-a]pyridin-7-yl)piperazine-1-carboxamide], the EC50 with U2OS cells is greater than 20 µM; in the assay with NCIH-460 cells, 6.05 µM; in the assay on PARG in U2OS cells (setting [1]), greater than 10 µM; in the assay on PARG in U2OS cells (setting [2]) it was 1.49 µM. Moreover, the 50% inhibitory concentration (IC50) at hPARG was 0.038 µM.
